Results: article PMC9323955, “Synthesis and Evaluation of Small Molecule Drug Conjugates Harnessing Thioester-Linked Maytansinoids” (Pharmaceutics, 2022)
“Also recorded” adds a separate entry of the source.

What was measured:
[1] = tested on: sorafenib-resistant hepatocellular carcinoma; test: Oncogene-induced, sorafenib-resistant HCC mouse model; format: in vivo
Procedure: (§1) Cancer cells suspended in RPMI 1640 medium (11835-030, Thermo Fisher Scientific, Waltham, MA, USA) were mixed with Matrigel™ (356237, BD Biosciences, Franklin Lakes, NJ, USA) in a 1:1 ratio. Human triple-negative breast cancer HCC1806 (1 × 10^6 cells) cells were inoculated subcutaneously into the left flank of 6-week-old female nude mice (BioLASCO Taiwan, Taipei, Taiwan) using a 1 mL syringe with a 24G needle (AN-2425R, Terumo Medical Corp., Tokyo, Japan). Tumor dimensions were measured twice weekly using electronic calipers (FOW54-200-777, PRO-MAX), and the volume of tumor grown subcutaneously (mm^3) was calculated by the formula Volume = (length × width^2)/2. A combination of 10% DMA/20% Cremophor EL/70% 5% dextrose injection (D5W) was formulated to treat HCC1806 xenograft tumors. Mice with HCC1806 tumors were grouped and administered the indicated dosing regimen of 1 mg/kg for the conjugate and 0.3 mg/kg for the cytotoxic payloads DM1 and DM4 twice-weekly (day 1 and day 4) for 2 weeks when the mean tumor volume was approximately 200–250 mm^3 or 850–900 mm^3 (large tumors). The conjugate dose of 2 mg/kg was administered weekly for the large tumor study. The body weight and tumor volume of mice were measured twice weekly. In addition, a previously reported oncogene-induced, sorafenib-resistant HCC mouse model was used in the current study to examine the antitumor activities of synthesized compounds. Briefly, plasmids including transposase (pCMV(CAT)T7-SB100), human Akt1, and luciferase (pKT2/CLP-AKT-2A-OVA-HBc-HBs-LUC) and the N-Ras V12 mutant (pT/Caggs-NRASV12) were hydrodynamically injected (HDI) and the liver was monitored for the appearance of HCC. HCC mice with a total flux of more than 1 × 10^9 photons/s from IVIS imaging were used as treatment conjugates. The indicated conjugate was administered intravenously at 1 mg/kg 3 times per week over 2 weeks. IVIS imaging was repeatedly performed to follow tumor progression, and tumor tissue from treated HCC mice was collected for histological examination and RNA extraction after administration.
Paraffin-embedded liver/tumor tissue sections were de-paraffined, re-hydrated, and then subjected to heat-induced antigen retrieval, followed by incubation with primary Abs. The primary antibodies used to detect Ki-67 and CD8α were SP6 (Abcam, Cambridge, UK) and D4W2Z (Cell Signaling Technology, Danvers, MA, USA), respectively. ImmPRESS anti-rat Ig, ImmPRESS anti-rabbit Ig, polymer detection kit, DAB peroxidase substrate kit (Vector laboratories, Burlingame, CA, USA), and liquid permanent red substrate (Dako, Glostrup, Denmark) and Hematoxylin Gill II (Leica, Wetzlar, Germany) were used for detection and visualization. Images were taken by NHRI’s Pathology Core Laboratory using an automated digital slide scanner Pannoramic MIDI with a Plan-Apochromat 20×/0.8 objective (3D HISTECH, Budapest, Hungary).
Total RNA was extracted from conjugate-treated or vehicle-treated HCC mouse tumor tissue using the RNA-easy kit (QIAGEN, Hilden, Germany). The concentration (absorbance at 260 nm) and purity (A260/280 and A260/230 ratios) of the extracted RNA was measured spectrophotometrically; RNA integrity was further determined using the 2100 Bioanalyzer System (Agilent RNA was further determined for RNA integrity using a 2100 Bioanalyzer System (Agilent Technologies, Santa Clara, CA, USA). RNA was hybridized to the barcode probe provided in the nCounter Mouse Pan-Cancer Immunoassay Kit (NanoString Technologies, Seattle, WA, USA) and then used to measure mRNA expression of 770 genes associated with the immune response. Nanostring nSolver 4.0 and nCounter Advanced Analysis 2.0 software (NanoString Technologies) was used for data processing, immune cell analysis, and pathway scoring according to the developer’s instructions.

[2] = tested on: HCC1806 human triple-negative breast cancer tumors; test: HCC1806 xenograft tumor efficacy; format: in vivo, female nude mice
Procedure: as §1

[3] = Nanostring mRNA analysis vs vehicle
[4] = Nanostring pathway scoring vs vehicle

## COc1cc2cc(c1Cl)N(C)C(=O)CC(OC(=O)C(C)N(C)C(=O)CCSC(=O)c1ccc(CN(CCOCCOCCNC(=O)c3ccc(CN(CCCCOc4cc(CN(Cc5ccccn5)Cc5ccccn5)cc(CN(Cc5ccccn5)Cc5ccccn5)c4)C(=O)C4(c5ccc(Cl)cc5)CCCCC4)cc3)C(=O)C3(c4ccc(Cl)cc4)CCCCC3)cc1)C1(C)OC1C(C)C1CC(O)(NC(=O)O1)C(OC)C=CC=C(C)C2.O=[N+]([O-])[O-].O=[N+]([O-])[O-].O=[N+]([O-])[O-].O=[N+]([O-])[O-].[Zn+2].[Zn+2] (stereo not drawn) [Zn8_DM1]
[1]; 1 mg/kg i.v. 3 times a week for 2 weeks
  anti-HCC tumor growth (flux of luciferase activity): potent anti-HCC tumor growth
[1]; CD8α immunohistochemistry
  CD8+ T-cell infiltration in tumors: significant increase
[1]; [3]
  CXCL9 gene expression in tumor tissue: significant upregulation
  PD-L1 gene expression in tumor tissue: elevated PD-L1 gene expression
  STAT1 gene expression in tumor tissue: elevated
[1]; [4]
  NK cell function score in TME: significant improvement
  T-cell function score in TME: significant improvement
  interferon score in TME: significant improvement
[1]; immunohistochemistry, treated tumor
  Ki-67 staining of tumor samples: marked reduction in Ki-67 staining
[1]; livers harvested a week post last dose
  liver tumor burden vs vehicle: less tumor burden
[2]; 1 mg/kg i.v. twice weekly for 2 weeks, tumors 200–250 mm^3
  anti-HCC1806 tumor growth activity: significant activities; also recorded: shrinkage of HCC1806 tumor growth
[2]; 2 mg/kg per week for two weeks, tumors ~900 mm^3
  effect on large HCC1806 tumors: could readily arrest or shrink the growth of larger tumors
